A word on the melting point: it is the temperature of the solid-liquid transition. A word on the boiling point: it is the temperature at which the vapour pressure of the liquid equals the pressure above it.

Conditions in the first data set: not given
For `ClC(COCC(Cl)C(Cl)(Cl)Cl)C(Cl)(Cl)Cl` (configuration not stated), the melting point is -50 °C and the ready biodegradability entry is reported as “not readily biodegradable”. The compound `O=C(O)C(F)(F)C(F)(F)C(F)(F)F` came in with a boiling point of 121 °C, a log10 vapour pressure (mmHg) of 0.804 and a melting point of -17.5 °C. With `CC(C)c1ccccc1C(C)C`, the boiling point is 204 °C, the log10 vapour pressure (mmHg) was -0.441, the melting point was -57 °C and the ready biodegradability result is “not readily biodegradable”. For `FC(F)OC(F)(F)C(F)Cl` (configuration not stated), the boiling point worked out at 56.5 °C. `CC1=C(/C=C/C(C)=C/C=C/C(C)=C/C=C/C=C(C)/C=C/C=C(C)/C=C/C2=C(C)C(=O)C(O)CC2(C)C)C(C)(C)CC(O)C1=O` (configuration not stated) registered a melting point of 182 °C.

As for `Oc1cccnc1`, the ready biodegradability result was “readily biodegradable”. With `O=C1c2cc([N+](=O)[O-])ccc2-c2ccc([N+](=O)[O-])cc21`, the melting point worked out at 294 °C. `C=CCCCCCCCCO` came in with a boiling point of 236 °C.

With `CNC`, the boiling point worked out at 6.8 °C, the log10 Henry constant (atm·m³/mol) was -4.75, the log10 Koa was 2 and the log10 vapour pressure (mmHg) came out at 3.18. The ready biodegradability entry is listed as “readily biodegradable”.

In turn, `O=C(Cl)c1cccc(Cl)c1` came in with a boiling point of 225 °C and a log10 vapour pressure (mmHg) of -0.854. On to `Clc1ccccc1C(Cl)(Cl)Cl`, for which the boiling point was determined as 264 °C, the log10 vapour pressure (mmHg) is -1.3 and the melting point came to 29.4 °C. In turn, `ClCCBr` returned a boiling point of 107 °C, a log10 Henry constant (atm·m³/mol) of -3.04, a log10 vapour pressure (mmHg) of 1.52 and a melting point of -16.7 °C.

In the case of `COc1nccnc1N(C(C)=O)S(=O)(=O)c1ccc(N)cc1`, the melting point is 199 °C. The same measure, in the same setting: then `CCCCCCCCCCCC(=O)Oc1ccccc1`, with 24.5 °C. As for `CC#CCCCCCC`, the boiling point was 162 °C. Take `Clc1ccc2c(Cl)ccc(Cl)c2c1`: the log10 Koa turned out to be 7.27. `O=C(O)CS`: the log10 vapour pressure (mmHg) was -1.06, the melting point is -16.5 °C and the ready biodegradability entry was “readily biodegradable”. With `CCOP(=S)(OCC)SCS(=O)(=O)C(C)(C)C`, the log10 Koc (L/kg) amounted to 2.18.

Turning to `COc1ccccc1NC(N)=S`, the melting point is 156 °C. Same read-out and setting: with `OCc1ccccc1C(c1ccc(O)cc1)c1ccc(O)cc1` the figure was 202 °C.

As for `OCCCOCCCO`, the ready biodegradability entry is listed as “not readily biodegradable”.

`Oc1ccc(C(F)(F)F)cc1`: the melting point worked out at 46 °C. Same read-out and setting: then `CCC(=O)C(CC(C)N1CCOCC1)(c1ccccc1)c1ccccc1` (configuration not stated), with 75.5 °C. Regarding `O=[N+]([O-])c1ccc(O)c([N+](=O)[O-])c1`, the log10 Henry constant (atm·m³/mol) was -7.07, the log10 vapour pressure (mmHg) is -3.41, the melting point amounted to 116 °C and the ready biodegradability entry is listed as “not readily biodegradable”. Regarding `CC(C)CCCCCCCCCCCCCCC(=O)O`, the ready biodegradability result is given as “readily biodegradable”. Consider `C[C@@H]1CC[C@@H](C)S1`, for which the boiling point amounted to 142 °C and the melting point is -89 °C. In the case of `CN1C(CCl)Nc2cc(Cl)c(S(N)(=O)=O)cc2S1(=O)=O` (configuration not stated), the melting point stood at 225 °C. The compound `CN1CCCC(CO)C1` (configuration not stated) gave a boiling point of 142 °C. Still for that read-out and setting: with `CCCCB(CCCC)CCCC` the figure was 209 °C. Turning to `Oc1nc(O)c2nccnc2n1`, the melting point was 348 °C. On the same count and under the same terms, with `CCCCCCCC[C@H](O)[C@H](O)CCCCCCCC(=O)O` the figure was 90 °C. On to `CNC(=O)Nc1cccc(Cl)c1`, for which the log10 Koc (L/kg) worked out at 1.93.

With `C1CN2CCN1CC2`, the boiling point turned out to be 174 °C, the log10 vapour pressure (mmHg) is -0.13, the melting point turned out to be 159 °C and the ready biodegradability result was “not readily biodegradable”. Turning to `NS(=O)(=O)c1cc2c(s1)S(=O)(=O)CCC2=O`, the melting point was 242 °C.

Compound `CCc1ccc2ccccc2n1` yielded a boiling point of 246 °C.

In the case of `COC(=O)C(C)Cl` (configuration not stated), the boiling point was found to be 132 °C and the ready biodegradability result is reported as “readily biodegradable”. As to `NCC(F)(F)C(F)(F)F`, the boiling point amounted to 49 °C. With `S=C=NCc1ccccc1`, the boiling point amounted to 243 °C and the log10 vapour pressure (mmHg) was -1.81.

For the compound `NCCc1ccc(Br)cc1`, the ready biodegradability result is listed as “readily biodegradable”. Turning to `CC=CC=CC(=O)OCC`, the boiling point worked out at 196 °C. Compound `CC(=O)O[C@]1(C(C)=O)CC[C@H]2[C@@H]3CCC4=CC(=O)CC[C@]4(C)[C@@]3(F)[C@@H](O)C[C@@]21C` registered a melting point of 268 °C. In turn, `CCCCCCCC#N` registered a boiling point of 205 °C, a log10 vapour pressure (mmHg) of -0.409 and a melting point of -45.6 °C. `CCc1ccc(O)c(C(C)(C)C)c1` displayed a log10 vapour pressure (mmHg) of -1.74.

On to `Cc1ccc(S(=O)(=O)F)cc1`, for which the melting point was 41.5 °C. In turn, `CC(=O)NCCS` displayed a melting point of 6.5 °C. Still for that read-out and setting: then `ClC1OCCOC1Cl` (configuration not stated), with 30 °C. Regarding `CCCOC`, the boiling point came to 39.1 °C and the log10 vapour pressure (mmHg) was 2.67.

Consider `CC(C)c1cccc(C(C)C)c1O`, for which the boiling point amounted to 256 °C, the melting point is 18 °C and the ready biodegradability result is “not readily biodegradable”. As for `CCCCC(N)=O`, the boiling point is 225 °C and the melting point came to 106 °C. The compound `FC(F)(Br)C(F)(F)C(F)(F)C(F)(F)C(F)(F)C(F)(F)Br` yielded a boiling point of 142 °C. Take `C=CCC1(C(C)C)C(=O)NC(=O)N(C)C1=O` (configuration not stated): the melting point worked out at 56.5 °C. Consider `CC(C)OC(=O)CCCCC(=O)OC(C)C`, for which the melting point was -1.1 °C. `FC(F)(Cl)C(Cl)Cl` registered a boiling point of 71.9 °C. As for `CCC(C)(C)CC`, the boiling point came out at 86 °C, the log10 biodegradation half-life (days) amounted to 0.954, the log10 vapour pressure (mmHg) amounted to 1.92 and the melting point is -135 °C. `Cc1cc(C(C)(C)C)cc(C)c1CC1=NCCN1` displayed a melting point of 132 °C. As to `CCOc1ccc2c(c1)C(C)=CC(C)(C)N2`, the ready biodegradability result was “not readily biodegradable”. The compound `Oc1ccc2cccc(O)c2c1` came in with a melting point of 180 °C. On to `Brc1ccccc1-c1ccccc1`, for which the boiling point stood at 297 °C and the melting point is 1.5 °C. For the compound `C=C1CC=C(C(C)C)CC1`, the boiling point was 174 °C.

On to `C[C@]12COC(=O)C[C@@H]1CC[C@@H]1[C@@H]2CC[C@@]2(C)[C@H]1CC[C@]2(C)O`, for which the melting point was 236 °C. `C=C(C(=O)O)C(F)(F)F` gave a melting point of 51.5 °C. With `N#CCCOCCC#N`, the boiling point came to 306 °C, the log10 vapour pressure (mmHg) is -3.76, the melting point was -26.3 °C and the ready biodegradability entry is recorded as “readily biodegradable”. In turn, `O=[N+]([O-])c1ccc(Oc2ccccc2)cc1` registered a boiling point of 320 °C and a melting point of 61 °C. The compound `Nc1ccc2ccc3ccccc3c2c1` returned a melting point of 143 °C. Compound `Cc1cc(N)c2ccccc2n1` gave a boiling point of 333 °C and a melting point of 169 °C.

`Oc1ccc(C2(c3ccc(O)cc3)CCCCC2)cc1`: the ready biodegradability result is “not readily biodegradable”. On to `OCC(F)(F)C(F)(F)C(F)(F)C(F)(F)C(F)(F)C(F)F`, for which the ready biodegradability entry is “not readily biodegradable”. With `CCCCOCc1ccco1`, the boiling point stood at 190 °C. `CCOC(=O)CC(SP(=O)(OC)OC)C(=O)OCC` (configuration not stated): the log10 vapour pressure (mmHg) was -5.01. `CCCCNc1cc(C(=O)O)cc(S(N)(=O)=O)c1Oc1ccccc1` yielded a melting point of 230 °C. With `Cc1ncc(CO)c(C=O)c1O`, the melting point was found to be 165 °C and the ready biodegradability entry is reported as “readily biodegradable”.

For `CCCCCCCCCCCCCCCC(=O)OCCC`, the melting point is 20.4 °C. `O=[N+]([O-])O[C@H]1CO[C@H]2[C@@H]1OC[C@H]2O[N+](=O)[O-]` registered a melting point of 70 °C.

Staying with this data set, now noted: fish.
Regarding `ClC(COCC(Cl)C(Cl)(Cl)Cl)C(Cl)(Cl)Cl` (configuration not stated), the log10 BCF came to 3.28. Turning to `CC(C)c1ccccc1C(C)C`, the log10 BCF was found to be 2.14.

As to `O=[N+]([O-])c1ccc(O)c([N+](=O)[O-])c1`, the log10 BCF worked out at 0.57.

`Brc1cc(Br)c(Oc2ccc(Br)c(Br)c2)c(Br)c1` had a log10 BCF of 6.29. `CCOC(=O)CC(SP(=O)(OC)OC)C(=O)OCC` (configuration not stated): the log10 BCF came out at 0.05 and the log10 biotransformation half-life (days) is -1.04.

The values above are taken from the OPERA property sets (Mansouri et al. 2018).
